Test results reported in paper PMC8394219, “In Vitro Nephrotoxicity Studies of Established and Experimental Platinum-Based Compounds” (Biomedicines, 2021).

Columns and labels:
ciPTEC [1] = assay: Cytotoxicity by relative cell count (RCC); type: cell-based, human; details: 24 h incubation; for IC50: cell count after 48 h post-cultivation; for cell number compared to the control: 48 h post-cultivation
Protocol: The renal cell line ciPTEC (conditionally immortalized proximal tubule epithelial cells), which was purchased from Dr. Martijn Wilmer, was used in the current study. ciPTECs were cultured in DMEM-HAM’s F12 phenol red-free medium (Gibco, Thermo Fisher Scientific, Dreieich, Germany) supplemented with 10% fetal calf serum (FCS) (Invitrogen, Darmstadt, Germany), 5 µg/mL insulin, 5 µg/mL transferrin, 5 ng/mL selenium, 36 ng/mL hydrocortisone, 10 ng/mL EGF (epidermal growth factor) and 40 pg/mL tri-iodothyronine (Sigma-Aldrich, Steinheim, Germany). For maintaining the proliferation status, cells were cultured at 33 °C in a humidified atmosphere of 5% CO2 in medium supplemented with 1% penicillin/streptomycin (P/S) (Sigma-Aldrich, Steinheim, Germany). […] For comparative analysis with the data obtained with the permanent cell line ciPTEC, studies were performed with primary patient-derived renal normal tissue cells (NT), which were obtained from patients at the University Medical Center Mainz. Cells were isolated from primary renal cancer samples of patients who underwent nephrectomy at the Department of Urology, University Medical Center Mainz. The study was performed in agreement with the Declaration of Helsinki and approved by local ethics committee (No. 837.005.09, Landesärztekammer Rheinland-Pfalz, Mainz, Germany). Each patient provided informed consent. NT cells were cultivated in RPMI-1640 medium (Sigma-Aldrich, Steinheim, Germany) containing 10% FCS and 5% P/S at 37 °C in a humidified atmosphere of 5% CO2.
Toxicity was determined by relative cell count (RCC). ciPTECs were seeded in duplicates in T25 flasks and cultivated as stated before. […] Cell count was then determined using a CASY® cell counter (CASY® TTC Cell Counter & Analyzer System). The cell counts of the treated samples were normalized to the untreated control to obtain the RCC expressed as percentage. RCC was determined in three independent experiments.

ciPTEC [2] = assay: Intracellular platinum accumulation by AAS in ciPTECs; type: in vitro ADME, human; details: 2 h
Protocol: The renal cell line ciPTEC (conditionally immortalized proximal tubule epithelial cells), which was purchased from Dr. Martijn Wilmer, was used in the current study. ciPTECs were cultured in DMEM-HAM’s F12 phenol red-free medium (Gibco, Thermo Fisher Scientific, Dreieich, Germany) supplemented with 10% fetal calf serum (FCS) (Invitrogen, Darmstadt, Germany), 5 µg/mL insulin, 5 µg/mL transferrin, 5 ng/mL selenium, 36 ng/mL hydrocortisone, 10 ng/mL EGF (epidermal growth factor) and 40 pg/mL tri-iodothyronine (Sigma-Aldrich, Steinheim, Germany). For maintaining the proliferation status, cells were cultured at 33 °C in a humidified atmosphere of 5% CO2 in medium supplemented with 1% penicillin/streptomycin (P/S) (Sigma-Aldrich, Steinheim, Germany). […]
Atomic absorption spectroscopy (AAS) was used to determine the intracellular accumulation after treatment with the platinum compounds. ciPTECs were seeded in T75 flasks and cultivated as stated before. […] Cells were then harvested via centrifugation and total cell count was determined. […] The residue was dissolved in 0.2% HNO3 and platinum amount was analyzed at a wavelength of […] in a graphite furnace using a PinAAcle 900 T (Perkin Elmer, Waltham, MA, USA). […] Intracellular accumulation was determined in three independent experiments and was calculated as ng Pt/10^6 cells.

ciPTEC [3] = assay: Gene expression profiling by high-throughput RT-qPCR in ciPTECs; type: cell-based, human; details: 24 h; for expression of genes related to transcription factors (general): PN149 20 µM, cisplatin 50 µM, oxaliplatin 150 µM; for HMOX1 gene expression: ROS-inducible gene; for IL-8 gene expression: marker for inflammation; for PMAIP1 gene expression: pro-apoptotic gene
Protocol: Gene expression profiles were generated using a high-throughput RT-qPCR method previously established in the institute. ciPTECs were cultivated in T25 flasks as stated before. […] RNA isolation and generation of gene expression profiles using a Fluidigm dynamic array on a BioMark™ (Rheinau, Germany) system were performed as previously described. For comparative analysis of ciPTEC with primary kidney cells, 5 × 10^5 NT cells were seeded in 10 cm dishes and cultivated for 24 h. […] Gene expression profiles in ciPTEC were generated in three independent experiments. Due to the limited amount of tissue material, gene expression analysis in primary kidney cells was performed in two independent experiments.

[4] = system: organic cation transporter 2 (OCT2); set-up: method as in PMID 17582384, PMID 21144842; details: cited from earlier work
[5] = system: primary patient-derived renal normal tissue cells (NT); assay: Gene expression profiling by high-throughput RT-qPCR in primary renal normal tissue cells; type: cell-based, human; details: normal tissue (primary kidney cells), 20 µM cisplatin, 24 h
Protocol: The renal cell line […] (conditionally immortalized proximal tubule epithelial cells), which was purchased from Dr. Martijn Wilmer, was used in the current study. […] For maintaining the proliferation status, cells were cultured at 33 °C in a humidified atmosphere of 5% CO2 in medium supplemented with 1% penicillin/streptomycin (P/S) (Sigma-Aldrich, Steinheim, Germany). For the experiments, […] were seeded at a density of 55,000 cells/cm^2 in cell culture flasks and were cultivated for 24 h at 33 °C. After 24 h, cells were transferred to 37 °C for maturation, while the medium was refreshed with medium containing no P/S. Cells were kept at 37 °C for 7 days while the medium was replaced every 2-3 days. For comparative analysis with the data obtained with the permanent cell line […], studies were performed with primary patient-derived renal normal tissue cells (NT), which were obtained from patients at the University Medical Center Mainz. Cells were isolated from primary renal cancer samples of patients who underwent nephrectomy at the Department of Urology, University Medical Center Mainz. The study was performed in agreement with the Declaration of Helsinki and approved by local ethics committee (No. 837.005.09, […]-Pfalz, Mainz, Germany). Each patient provided informed consent. […]

[6] = Anti-oxidant capacity: fluorescein consumption induced by AAPH-derived peroxyl radicals; details: for effect on consumption of fluorescein: fluorescein 10 µM, AAPH 50 mM, phosphate buffer pH 7.4, 37 °C, cisplatin 10 µM, PN149 10, 25, 50 µM
Protocol: The influence of PN149 on the rates of the reaction of fluorescein with free radicals generated by the azo initiator 2,2′-azobis(2-amidinopropane) dihydrochloride (AAPH) was studied according to [35] in phosphate buffer (PB, 50 mM, pH 7.4) by measuring the decay of the probe at 494 nm with absorption spectrophotometer Specord UV–Vis equipped with a thermostated cell maintained at 37 °C. […] The lag phase of the reaction means no changes in the optical density of the reaction mixture. AAPH and fluorescein were purchased from Sigma-Aldrich, JM216 [e-ammine-d-(cyclohexylamine)-a,f-bis(acetato)-b,c-dichloroplatinum(IV)] was obtained as described in [36].

ciPTECs = system: ciPTECs; set-up: method as in PMID 26821801; details: ciPTECs treated with cisplatin for 24 h, MTT assay ref 45; read-out: TC50 (≡ IC50); cited from earlier work
[7] = system: testicular germ cell tumors; set-up: method as in PMID 12835671; details: combination therapy against testicular germ cell tumors ref 2; cited from earlier work
MATE1 = details: cited from earlier work
MATE2-K = details: cited from earlier work

Row | Compound | IC50 (ciPTEC [1]) [µM] | ng Pt/10^6 Cells (platinum accumulation) (ciPTEC [2]; 300 µM carboplatin) [ng Pt/10^6 cells] | NFKB2 gene expression (ciPTEC [3]) | expression of genes related to transcription factors (general) (ciPTEC [3]) | HMOX1 gene expression (ciPTEC [3]) | IL-8 gene expression (ciPTEC [3]) | PMAIP1 gene expression (ciPTEC [3]) | uptake via / affinity to OCT2 [4] | cell number compared to the control (ciPTEC [1]; 50 µM) | expression of DNA repair-related genes (ciPTEC [3]; 20 µM cisplatin) | expression of DNA repair-related genes [5] | effect on consumption of fluorescein [6] | IC50 (ciPTECs) [µM] | cure rates [7] | affinity for MATE1 (MATE1) | affinity for MATE2-K (MATE2-K) | kinetics of fluorescein consumption ([6]; JM216 10 M as printed, data not shown) | ng Pt/10^6 Cells (platinum accumulation) (ciPTEC [2]; 50 µM) [ng Pt/10^6 cells] | cell number compared to the control (ciPTEC [1]; concentration not stated (Figure 2A)) | HSPA1A gene expression (ciPTEC [3]; heat-shock sensitive gene)
1 | N.N.O=C([O-])C1(C(=O)[O-])CCC1.[Pt+2] [Carboplatin] | 175 | 18 ± 2 | repressed transcript levels | no general down-regulation | strongly induced | repressed gene expression | strong concentration-dependent increase | no affinity to this transporter |  |  |  |  |  |  |  |  |  |  |  | 
2 | N.N.[Cl][Pt][Cl] [Cisplatin] | 13 |  | slightly enhanced | strong down-regulation of gene transcripts | slightly lesser effects | increased transcript levels | strong concentration-dependent increase |  | less than 10% | increased expression of several repair-related genes | reduced transcript levels | only slightly slowed down the consumption of fluorescein | 34 | over 80% | only low affinity for MATE1 | no affinity for MATE2-K |  |  |  | 
3 | CC(=O)[O-].CC(=O)[O-].N.NC1CCCCC1.[Cl-].[Cl-].[Pt+4] [JM216, e-ammine-d-(cyclohexylamine)-a,f-bis(acetato)-b,c-dichloroplatinum(IV)] |  |  |  |  |  |  |  |  |  |  |  |  |  |  |  |  | practically coincided with curve 2 for cisplatin |  |  | 
4 | O=C1[O][Pt]2([NH][C@@H]3CCCC[C@H]3[NH]2)[O]C1=O [Oxaliplatin] | 51 |  | slightly enhanced | widespread gene repression was restricted to the highest concentration used | slightly lesser effects | increased transcript levels | strong concentration-dependent increase |  |  |  |  |  |  |  | substrate for both MATE1 and MATE2-K |  |  | 11 ± 2 |  | 
5 | e-ammine-d-(3-amino-2,2,5,5-tetramethylpyrrolidine-1-oxyl)-a,f-bis(butanoato)-b,c-dichloro-platinum(IV) [PN149] | 6 |  | repressed transcript levels | widespread gene repression | strongly induced | repressed gene expression | peaked at 20 µM |  |  |  |  | effectively inhibited the consumption of fluorescein |  |  |  |  |  |  | less than 5% | strong concentration-dependent increase
